Test results published in patent US12077503B2, “Substituted cyclic amides and their use as herbicides” (FMC CORPORATION, priority 2015, dated 2024).

Tests used:
Format in all cases: in vivo
[1] = test system: Galium (catchweed bedstraw, Galium aparine); assay: Test A postemergence
From the text: (§1) Seeds of plant species selected from barnyardgrass (Echinochloa crus-galli), Kochia (Kochia scoparia), ragweed (common ragweed, Ambrosia elatior), ryegrass, Italian (Italian ryegrass, Lolium multiflorum), crabgrass, large (Digitaria sanguinalis), giant foxtail (Setaria faberii), green foxtail (Setaria viridis), morningglory (Ipomoea spp.), pigweed (Amaranthus retroflexus), velvetleaf (Abutilon theophrasti), wheat (Triticum aestivum), and corn (Zea mays) were planted into a blend of loam soil and sand and treated preemergence with a directed soil spray using test chemicals formulated in anon-phytotoxic solvent mixture which included a surfactant.
(§2) At the same time, plants selected from these crop and weed species and also blackgrass (Alopecurus myosuroides), and Galium (catchweed bedstraw, Galium aparine) were planted in pots containing the same blend of loam soil and sand and treated with postemergence applications of test chemicals formulated in the same manner. Plants ranged in height from 2 to 10 cm and were in the one- to two-leaf stage for the postemergence treatment. Treated plants and untreated controls were maintained in a greenhouse for approximately 10 d, after which time all treated plants were compared to untreated controls and visually evaluated for injury. Plant response ratings, summarized in Table A, are based on a 0 to 100 scale where 0 is no effect and 100 is complete control. A dash (-) response means no test result.

[2] = test system: blackgrass (Alopecurus myosuroides); assay: Test A postemergence
From the text: as §1, §2

[3] = test system: barnyardgrass (Echinochloa crus-galli); assay: Test A postemergence
From the text: as §1, §2

[4] = test system: ryegrass, Italian (Italian ryegrass, Lolium multiflorum); assay: Test A postemergence
From the text: as §1, §2

[5] = test system: wheat (Triticum aestivum); assay: Test A postemergence
From the text: as §1, §2

[6] = test system: ragweed (common ragweed, Ambrosia elatior); assay: Test A postemergence
From the text: as §1, §2

Kochia (Kochia scoparia) [7] = assay: Test A postemergence
From the text: as §1, §2

corn (Zea mays) = assay: Test A postemergence
From the text: as §1, §2

[8] = test system: pigweed (Amaranthus retroflexus); assay: Test A postemergence
From the text: as §1, §2

[9] = test system: giant foxtail (Setaria faberii); assay: Test A postemergence
From the text: as §1, §2

[10] = test system: barnyardgrass (Echinochloa crus-galli); assay: Test A preemergence; settings: Preemergence; for Plant response rating, Barnyardgrass: 125 g ai/ha, visual injury after approximately 10 d, 0 to 100 scale where 0 is no effect and 100 is complete control; for Barnyardgrass plant response rating (0 to 100 scale, 0 is no effect, 100 is complete control): 500 g ai/ha, visual injury approx. 10 d
From the text: as §1, §2

[11] = test system: ryegrass, Italian (Italian ryegrass, Lolium multiflorum); assay: Test A preemergence; settings: Preemergence; for Plant response rating, Ryegrass, Italian: 125 g ai/ha, visual injury after approximately 10 d, 0 to 100 scale where 0 is no effect and 100 is complete control; for Ryegrass, Italian plant response rating (0 to 100 scale, 0 is no effect, 100 is complete control): 500 g ai/ha, visual injury approx. 10 d
From the text: as §1, §2

[12] = test system: ragweed (common ragweed, Ambrosia elatior); assay: Test A preemergence; settings: Preemergence; for Plant response rating, Ragweed: 125 g ai/ha, visual injury after approximately 10 d, 0 to 100 scale where 0 is no effect and 100 is complete control; for Ragweed plant response rating (0 to 100 scale, 0 is no effect, 100 is complete control): 500 g ai/ha, visual injury approx. 10 d
From the text: as §1, §2

Kochia (Kochia scoparia) [13] = assay: Test A preemergence; settings: Preemergence; for Plant response rating, Kochia: 125 g ai/ha, visual injury after approximately 10 d, 0 to 100 scale where 0 is no effect and 100 is complete control; for Kochia plant response rating (0 to 100 scale, 0 is no effect, 100 is complete control): 500 g ai/ha, visual injury approx. 10 d
From the text: as §1, §2

[14] = test system: pigweed (Amaranthus retroflexus); assay: Test A preemergence; settings: Preemergence; for Plant response rating, Pigweed: 125 g ai/ha, visual injury after approximately 10 d, 0 to 100 scale where 0 is no effect and 100 is complete control; for Pigweed plant response rating (0 to 100 scale, 0 is no effect, 100 is complete control): 500 g ai/ha, visual injury approx. 10 d
From the text: as §1, §2

[15] = test system: giant foxtail (Setaria faberii); assay: Test A preemergence; settings: Preemergence; for Plant response rating, Foxtail, Giant: 125 g ai/ha, visual injury after approximately 10 d, 0 to 100 scale where 0 is no effect and 100 is complete control; for Foxtail, Giant plant response rating (0 to 100 scale, 0 is no effect, 100 is complete control): 500 g ai/ha, visual injury approx. 10 d
From the text: as §1, §2

[16] = 125 g ai/ha, postemergence, visual rating after approx. 10 d, 0 to 100 scale (0 no effect, 100 complete control)
[17] = Postemergence, 500 g ai/ha, 0 to 100 scale where 0 is no effect and 100 is complete control

Row | Structure (SMILES) | Plant response rating, Galium [1, 16] | Plant response rating, Galium [1, 17] | Plant response rating, Blackgrass [2, 16] | Plant response rating, Blackgrass [2, 17] | Plant response rating, Barnyardgrass [3, 16] | Plant response rating, Barnyardgrass [3, 17] | Plant response rating, Ryegrass, Italian [4, 16] | Plant response rating, Ryegrass, Italian [4, 17] | Plant response rating, Wheat [5, 16] | Plant response rating, Wheat [5, 17] | Plant response rating, Ragweed [6, 16] | Plant response rating, Ragweed [6, 17] | Plant response rating, Kochia (Kochia (Kochia scoparia) [7]; [16]) | Plant response rating, Kochia (Kochia (Kochia scoparia) [7]; [17]) | Plant response rating, Corn (corn (Zea mays); [16]) | Plant response rating, Corn (corn (Zea mays); [17]) | Plant response rating, Pigweed [8, 16] | Plant response rating, Pigweed [8, 17] | Plant response rating, Foxtail, Giant [9, 16] | Plant response rating, Foxtail, Giant [9, 17] | further results
1 | CCc1cccc(C2CN(C)C(=O)C2C(=O)Nc2ccccc2F)c1 (stereo not drawn) [Compound 567] | 40 | 50 | 60 | 80 | 90 | 100 | 70 | 70 | 30 | 60 | 0 | 0 | 20 | 50 | 70 | 90 | 20 | 20 | 90 | 90 | Plant response rating, Barnyardgrass [10]: 100; Barnyardgrass plant response rating (0 to 100 scale, 0 is no effect, 100 is complete control) [10]: 100; Plant response rating, Ryegrass, Italian [11]: 60; Ryegrass, Italian plant response rating (0 to 100 scale, 0 is no effect, 100 is complete control) [11]: 80; Plant response rating, Ragweed [12]: 50; Ragweed plant response rating (0 to 100 scale, 0 is no effect, 100 is complete control) [12]: 60; Plant response rating, Kochia (Kochia (Kochia scoparia) [13]): 60; Kochia plant response rating (0 to 100 scale, 0 is no effect, 100 is complete control) (Kochia (Kochia scoparia) [13]): 80; Plant response rating, Pigweed [14]: 20; Pigweed plant response rating (0 to 100 scale, 0 is no effect, 100 is complete control) [14]: 40; Plant response rating, Foxtail, Giant [15]: 100; Foxtail, Giant plant response rating (0 to 100 scale, 0 is no effect, 100 is complete control) [15]: 100
2 | Cc1c(F)cccc1NC(=O)C1C(=O)N(C)CC1c1cccc(C(F)(F)F)c1 (stereo not drawn) [Compound 573] | 60 | 70 | 70 | 70 | 90 | 100 | 70 | 90 | 70 | 70 | 20 | 60 | 50 | 60 | 80 | 90 | 30 | 40 | 90 | 90 | Plant response rating, Barnyardgrass [10]: 90; Barnyardgrass plant response rating (0 to 100 scale, 0 is no effect, 100 is complete control) [10]: 100; Plant response rating, Ryegrass, Italian [11]: 80; Ryegrass, Italian plant response rating (0 to 100 scale, 0 is no effect, 100 is complete control) [11]: 90; Plant response rating, Ragweed [12]: 0; Ragweed plant response rating (0 to 100 scale, 0 is no effect, 100 is complete control) [12]: 50; Plant response rating, Kochia (Kochia (Kochia scoparia) [13]): 70; Kochia plant response rating (0 to 100 scale, 0 is no effect, 100 is complete control) (Kochia (Kochia scoparia) [13]): 80; Plant response rating, Pigweed [14]: 40; Pigweed plant response rating (0 to 100 scale, 0 is no effect, 100 is complete control) [14]: 80; Plant response rating, Foxtail, Giant [15]: 90; Foxtail, Giant plant response rating (0 to 100 scale, 0 is no effect, 100 is complete control) [15]: 100
3 | CN1CC(c2cccc(C(F)(F)F)c2)C(C(=O)Nc2cccc(Cl)c2F)C1=O (stereo not drawn) [Compound 574] | 40 | 50 | 60 | 70 | 90 | 90 | 50 | 70 | 40 | 70 | 0 | 0 | 30 | 60 | 60 | 80 | 20 | 40 | 80 | 80 | Plant response rating, Barnyardgrass [10]: 90; Barnyardgrass plant response rating (0 to 100 scale, 0 is no effect, 100 is complete control) [10]: 90; Plant response rating, Ryegrass, Italian [11]: 40; Ryegrass, Italian plant response rating (0 to 100 scale, 0 is no effect, 100 is complete control) [11]: 80; Plant response rating, Ragweed [12]: 0; Ragweed plant response rating (0 to 100 scale, 0 is no effect, 100 is complete control) [12]: 0; Plant response rating, Kochia (Kochia (Kochia scoparia) [13]): 40; Kochia plant response rating (0 to 100 scale, 0 is no effect, 100 is complete control) (Kochia (Kochia scoparia) [13]): 70; Plant response rating, Pigweed [14]: 20; Pigweed plant response rating (0 to 100 scale, 0 is no effect, 100 is complete control) [14]: 50; Plant response rating, Foxtail, Giant [15]: 90; Foxtail, Giant plant response rating (0 to 100 scale, 0 is no effect, 100 is complete control) [15]: 90
